The source of these data is patent US9394350B2, “HLA-A2 tumor associated antigen peptides and compositions” (OSE PHARMA INTERNATIONAL SA, priority 2003, dated 2016).

For data set [1], the system named is patients with recurrent or residual cervical carcinoma. Particulars: cited from earlier work.
Data set [2] deals with purified HLA-DR molecules. To be noted: cited from earlier work; for IC50: high or intermediate affinity, most prevalent HLA-DR molecules, read-out: IC50 for HLA-DR binding; for Number of HLA-DR molecules bound: out of 16 DR molecules tested.
A short description of data set [3]: Solubility of individual peptides.
The subject of data set [4] is PBMC obtained from healthy donors and cancer patients. Particulars: primary in vitro induction in healthy donors and recall responses in cancer patients; cited from earlier work.
For another data set, the system named is HLA-A2.1 transgenic mice. To be noted: shown by others; cited from earlier work.
The subject of the next data set is HLA-A2 supertype alleles. Description: MHC binding of motif-containing peptides to purified HLA-A2 supertype molecules. More on the design: species or system human. To be noted: all peptides bind prototype HLA-A2.1. From the text:
Assays for determining binding are described in detail, e.g., in PCT publications WO 94/20127 and WO 94/03205, and other publications such Sidney et al., Current Protocols in Immunology 18.3.1 (1998); Sidney, et al., J. Immunol. 154:247 (1995); and Sette, et al., Mol. Immunol. 31:813 (1994). It should be noted that IC50 values can change, often dramatically, if the assay conditions are varied, and depending on the particular reagents used (e.g., HLA preparation, etc.). For example, excessive concentrations of HLA molecules will increase the apparent measured IC50 of a given ligand.
A computer-based motif and algorithm search was performed on the primary amino acid sequences of CEA, MAGE-2/3, HER-2/neu, and p53 to predict peptides most likely to bind the MHC molecules of the five alleles of the HLA-A2 supertype family (Tables 4 and 6) (Sette, A. and J. Sidney, Immunogenetics 50:201-212 (1999)). Motif and algorithm-positive peptides were then synthesized and tested for binding to purified HLA-A2.1, the molecule most frequently expressed in humans as well as other MHC molecules of the HLA-A2 supertype family.

The subject of data set [5] is colon cancer and NSCLC patients. Particulars: out of 12 patients who received the DC vaccine; cited from earlier work.
Data set [6] relates to HLA-A2.1 positive target cells and wild-type peptide. As to the kind of experiment: in vitro primary CTL induction with human PBMC, read-out on peptide-loaded targets. The data set is classed as cell-based. The procedure:
In the final step of the epitope screening process, peptides with high cross-reactive MHC binding to the HLA-A2 supertype family receptors were tested for immunogenicity. The assay is an in vitro primary CTL induction system where CD8^+ PBMC from normal subjects are stimulated in vitro, initially with peptide-loaded dendritic cells (DCs) (adherent PBMC expanded in GM-CSF and IL-4), followed by two weekly cycles of restimulation with peptide (Keogh, E., et al., J. Immunol. 167:787-796 (2001); Kawashima, I., et al., Hum. Immunol. 59:1-14 (1998)). Following expansion of naïve precursor cells, CTL activity is determined in the presence of HLA-A2.1 positive target cells and wild-type peptide, using cytotoxicity (^51Cr-release assay) or interferon-gamma (IFN-γ) production (ELISA) as the read-out. Immunogenic peptides that induced CTL were further tested for responses against the naturally processed epitope expressed on tumor cell lines. Epitopes that induced tumor-reactive CTL were considered as vaccine candidates.

[7] abbreviates: pH 9.6, Solubility, Basic conditions (pH 9.6-13).
[8] abbreviates: Solubility, Acidic conditions (pH 2-4).
Setting [9] is: Solubility, Acidic conditions (pH 2-4), 0.1% TFA, 0.15-0.1875M acetic acid, 25 mM pH 4 sodium acetate, 2-5 mg/ml.
Setting [10] is: pH 9.6, Solubility, Basic conditions (pH 9.6-13), 25 mM pH 9.6 arginine, 25 mM pH 9.6 sodium bicarbonate, 0.1M NaOH, 2-5 mg/ml.

Like-named read-outs stand apart in the source and are kept apart here. Bounds are passed on as bounds.

The term IC50 denotes the concentration that gives 50% inhibition. Broadly, the solubility is the dissolved amount per volume that the medium holds. Low values mean a poorly soluble substance, high ones a readily soluble substance.

`CC(C)C[C@H](NC(=O)[C@@H](NC(=O)[C@H](Cc1c[nH]c2ccccc12)NC(=O)[C@H](C)NC(=O)[C@H](C)NC(=O)[C@@H](NC(=O)[C@H](CC1CCCCC1)NC(=O)[C@H](CCCCN)NC(=O)[C@@H](C)N)C(C)C)[C@@H](C)O)C(=O)N[C@@H](CCCCN)C(=O)N[C@@H](C)C(=O)N[C@@H](C)C(=O)N[C@H](C)C(=O)O` [Peptide 965.10, aKXVAAWTLKAAa]: the immunogenicity in humans entry in data set [1] (co-emulsified with HPV-derived CTL epitopes) is reported as “highly immunogenic in humans”. The safety entry in data set [1] (patients with recurrent or residual cervical carcinoma) is recorded as “Safety was, in fact, demonstrated”. In addition, in data set [2], the IC50 was at most 1000 nM. Also, the solubility in data set [3] is over 2000 µg/mL; in data set [3] (pH 9.6) it was under 5000 µg/mL.
For `CC(C)C[C@H](NC(=O)[C@H](CC(C)C)NC(=O)[C@@H](N)CCCNC(=N)N)C(=O)N[C@@H](CCC(N)=O)C(=O)N[C@@H](CCC(=O)O)C(=O)N[C@H](C(=O)N[C@@H](CCC(=O)O)C(=O)N[C@@H](CC(C)C)C(=O)N[C@H](C(=O)O)C(C)C)[C@@H](C)O` [Peptide 1013.08], the “specific CTL responses using PBMC” value in data set [4] is reported as “induced specific CTL responses”. Moreover, the solubility by setting is: (Solubility, DMSO) over 2000 µg/mL; under setting [7], over 2000 µg/mL.
Regarding `CC[C@H](C)[C@H](NC(=O)CNC(=O)[C@H](Cc1ccccc1)NC(=O)[C@@H](NC(=O)[C@H](CC(C)C)NC(=O)[C@H](CCC(N)=O)NC(=O)[C@H](CC(C)C)NC(=O)[C@@H](N)Cc1ccc(O)cc1)C(C)C)C(=O)N[C@@H](CCC(=O)O)C(=O)N[C@H](C(=O)O)C(C)C` [Peptide 1090.01], the solubility is, setting by setting: under setting [8], under 5000 µg/mL; (Solubility, DMSO) over 2000 µg/mL; under setting [7], over 2000 µg/mL. The “peptide and tumor cell-reactive CTL in vivo” value with HLA-A2.1 transgenic mice was “induce peptide and tumor cell-reactive CTL in vivo”.
`CC(C)C[C@H](NC(=O)[C@@H](N)CC(C)C)C(=O)N[C@H](C(=O)N[C@@H](Cc1ccccc1)C(=O)N[C@@H](Cc1c[nH]c2ccccc12)C(=O)N[C@@H](CC(N)=O)C(=O)N1CCC[C@H]1C(=O)N1CCC[C@H]1C(=O)N[C@H](C(=O)O)C(C)C)[C@@H](C)O` [Peptide 1243.08] yielded a solubility under setting [8] of over 2000 µg/mL; a solubility (Solubility, DMSO) of over 2000 µg/mL; a solubility under setting [7] of over 2000 µg/mL.
In the case of `CSCC[C@H](NC(=O)[C@@H](N)CO)C(=O)N1CCC[C@H]1C(=O)N1CCC[C@H]1C(=O)N1CCC[C@H]1C(=O)NCC(=O)N[C@H](C(=O)N[C@@H](CCCNC(=N)N)C(=O)N[C@H](C(=O)O)C(C)C)[C@@H](C)O` [Peptide 1295.03], the “peptide and tumor cell-reactive CTL in vivo” value in the data set with HLA-A2.1 transgenic mice was “induce peptide and tumor cell-reactive CTL in vivo”. For the same compound, the solubility was over 2000 µg/mL in data set [3] (setting [9]); over 2000 µg/mL in [3] (Solubility, DMSO, 2-5 mg/ml); over 2000 µg/mL in data set [3] (setting [10]). Further, the “Solubility at physiological pH” value in data set [3] is listed as “soluble”.
`CC(C)C[C@H](NC(=O)[C@H](CCC(N)=O)NC(=O)[C@@H](NC(=O)[C@@H]1CCCN1C(=O)C(C)(C)NC(=O)[C@H](CC(C)C)NC(=O)[C@@H](N)CCCCN)C(C)C)C(=O)N[C@@H](Cc1c[nH]c2ccccc12)C(=O)N[C@H](C(=O)O)C(C)C` [Peptide 1323.06, KLBPVQLWV]: the solubility in [3] (setting [9]) was over 2000 µg/mL; in data set [3] (Solubility, DMSO, 2-5 mg/ml) it was over 2000 µg/mL; in data set [3] (setting [10]) it was over 2000 µg/mL. Besides, the “Solubility at physiological pH” value in data set [3] was “soluble”.
On to `CC(C)C[C@H](NC(=O)[C@H](CO)NC(=O)CNC(=O)[C@H](Cc1ccccc1)NC(=O)[C@@H](NC(=O)[C@@H](N)CCCCN)C(C)C)C(=O)N[C@@H](C)C(=O)N[C@@H](Cc1ccccc1)C(=O)N[C@H](C(=O)O)C(C)C` [Peptide 1334.10], for which the solubility by setting is: under setting [8], over 2000 µg/mL; (Solubility, DMSO) over 2000 µg/mL; under setting [7], under 5000 µg/mL.
In the case of `CC(C)C[C@H](NC(=O)[C@H](CC(N)=O)NC(=O)[C@H](CC(C)C)NC(=O)[C@H](CC(=O)O)NC(=O)[C@H](C)NC(=O)CNC(=O)[C@H](CO)NC(=O)[C@H](CC(C)C)NC(=O)[C@@H](N)Cc1ccc(O)cc1)C(=O)O` [Peptide 1350.01], the “No. A2 Alleles Crossbound” value with HLA-A2 supertype alleles was found to be 3. The clinical responders result in data set [5] was “five”. In addition, the solubility in data set [3] (setting [9]) is over 2000 µg/mL; in data set [3] (Solubility, DMSO, 2-5 mg/ml), over 2000 µg/mL; in [3] (setting [10]), over 2000 µg/mL. Moreover, in data set [3], the “Solubility at physiological pH” value is “soluble”.
For the compound `CC[C@H](C)[C@H](N)C(=O)N[C@@H](CCSC)C(=O)N[C@H](C(=O)NCC(=O)N[C@@H](Cc1c[nH]cn1)C(=O)N[C@@H](CC(C)C)C(=O)N[C@H](C(=O)NCC(=O)N[C@H](C(=O)O)C(C)C)C(C)C)[C@@H](C)CC` [Peptide 1352.02], the “CTL activity of heteroclitic analog versus wild-type peptide” value in data set [6] is reported as “strong CTL activity which exceeds that of the wild-type peptide”. Moreover, the solubility is over 2000 µg/mL in data set [3] (setting [9]); over 2000 µg/mL in data set [3] (Solubility, DMSO, 2-5 mg/ml); under 5000 µg/mL in data set [3] (setting [10]).
In the case of `CC[C@H](C)[C@H](NC(=O)[C@H](CCC(=O)O)NC(=O)[C@H](C)NC(=O)[C@@H](NC(=O)[C@@H](N)CCCCN)C(C)C)C(=O)N[C@H](C(=O)N[C@@H](Cc1c[nH]cn1)C(=O)N[C@@H](Cc1ccccc1)C(=O)N[C@@H](CC(C)C)C(=O)O)C(C)C` [Peptide 1352.03], the “CTL activity of heteroclitic analog versus wild-type peptide” value in data set [6] is “strong CTL activity which exceeds that of the wild-type peptide”. For the same compound, the solubility in [3] (setting [9]) is over 2000 µg/mL; in [3] (Solubility, DMSO, 2-5 mg/ml), over 2000 µg/mL; in data set [3] (setting [10]), over 2000 µg/mL. Moreover, the “Solubility at physiological pH” value in [3] is “soluble”.
In the case of “TT 830-843: tetanus toxoid (TT) peptide 830-843, a "universal" epitope (QYIKANSKFIGITE; UniProt P04958 830-843, looked up, fragment) [reference compound]”, the “Number of HLA-DR molecules bound” value in [2] is “seven”.
For the compound aKXVAAWTLKAAa-NH2, in data set [2], the half-maximal inhibitory concentration (IC50) was at most 1000 nM and the “Number of HLA-DR molecules bound” value was 15.
Take “p53.149: wild-type version of analog p53.149M2 used in EP-2101 (STPPPGTRV; UniProt P04637 149-157, looked up, fragment) [reference compound]”: the “specific CTL responses using PBMC” value in data set [4] is on record as “induced specific CTL responses”.
